# Results from ChEMBL document CHEMBL6182859, “Synthesis of Thioloformate-Containing Lathyrane Diterpene Derivates via a [3,3] Sigmatropic Rearrangement and Their Anti-HIV Activity” (J Nat Prod, 2025).
# How the values were obtained:
# [1] = system: Human immunodeficiency virus 2; assay: Anti-HIV activity against HIV-2 ROD infected in human MT4 cells assessed as inhibition of virus-induced cytopathicity measured after 4 days by CellTiter 96 Aqueous One Solution Cell Proliferation Assay; type: functional, organism-based; settings: Human immunodeficiency virus 2, ROD, MT4, 96 h
# [2] = Cytotoxicity against human MT4 cells assessed as reduction in cell viability measured after 4 days by CellTiter 96 Aqueous One Solution Cell Proliferation Assay; type: toxicity, cell-based; settings: time 4 day
# [3] = system: Human immunodeficiency virus 1; assay: Anti-HIV activity against HIV-1 NL 4.3 infected in human MT4 cells assessed as inhibition of virus-induced cytopathicity measured after 4 days by CellTiter 96 Aqueous One Solution Cell Proliferation Assay; type: functional, organism-based; settings: Human immunodeficiency virus 1, NL 4.3, MT4, 96 h
# [4] = Selectivity index, ratio of CC50 for cytotoxicity against human MT4 cells to EC50 for antiviral activity against HIV-2 ROD infected in human MT4 cells; type: toxicity, cell-based; settings: read-out: Ratio CC50/EC50
# [5] = Selectivity index, ratio of CC50 for cytotoxicity against human MT4 cells to EC50 for antiviral activity against HIV-1 NL 4.3 infected in human MT4 cells; type: toxicity, cell-based; settings: read-out: Ratio CC50/EC50
SMILES,EC50 [1] [µM],CC50 at 96 h [2] [µM],EC50 [3] [µM],selectivity ratio [4],selectivity ratio [5]
C/C1=C\[C@@H]2[C@H](CC/C(CSC(=O)Oc3ccc(F)cc3)=C\C3[C@@H](O)[C@@H](C)C[C@]3(O)C1=O)C2(C)C (some centres undefined),> 45.2,45.2,> 45.2,–,–
C/C1=C\[C@@H]2[C@H](CC/C(CSC(=O)Oc3ccccc3Br)=C\C3[C@@H](O)[C@@H](C)C[C@]3(O)C1=O)C2(C)C (some centres undefined),> 45.2,45.2,> 45.2,–,–
COc1ccc(OC(=O)SC/C2=C/C3[C@@H](O)[C@@H](C)C[C@]3(O)C(=O)/C(C)=C/[C@@H]3[C@H](CC2)C3(C)C)cc1 (some centres undefined),> 47.4,47.4,> 47.4,–,–
C/C1=C\[C@@H]2[C@H](CC/C(CSC(=O)Oc3cc(F)cc(F)c3)=C\C3[C@@H](O)[C@@H](C)C[C@]3(O)C1=O)C2(C)C (some centres undefined),> 45,45,> 45,–,–
C/C1=C\[C@@H]2[C@H](CC/C(CSC(=O)Oc3ccc(Cl)cc3)=C\C3[C@@H](O)[C@@H](C)C[C@]3(O)C1=O)C2(C)C (some centres undefined),> 45.4,45.4,> 45.4,–,–
C/C1=C\[C@@H]2[C@H](CC/C(CSC(=O)Oc3ccccc3)=C\C3[C@@H](O)[C@@H](C)C[C@]3(O)C1=O)C2(C)C (some centres undefined),13.1,13.1,> 13.1,–,–
C/C1=C\[C@@H]2[C@H](CC/C(CSC(=O)Oc3ccc(C)cc3)=C\C3[C@@H](O)[C@@H](C)C[C@]3(O)C1=O)C2(C)C (some centres undefined),6.6,45.1,11.3,> 6.8,> 4
C=C1CC[C@H]2[C@@H](/C=C(\C)C(=O)[C@@]3(OC(C)=O)C[C@H](C)[C@H](OC(=O)c4ccccc4)C3[C@H]1OC(C)=O)C2(C)C (some centres undefined),> 100,> 100,> 100,–,–
C/C1=C\[C@@H]2[C@H](CC/C(CSC(=O)Oc3c(C)cccc3C)=C\C3[C@@H](O)[C@@H](C)C[C@]3(O)C1=O)C2(C)C (some centres undefined),> 100,> 100,> 100,–,–
